Measured values: patent US9896439B2, “Pyrazole-substituted arylamides as P2X3 and P2X2/3 antagonists” (Roche Palo Alto LLC, priority 2007, dated 2018)

Experiments:
[1] = target: T1, rat P2X3 receptor (Rattus norvegicus, UniProt P49654); experiment: P2X3 FLIPR (Fluorometric Imaging Plate Reader) assay; format: cell-based; conditions: CHO-K1 cells transfected with cloned rat P2X3; agonist α,β-meATP 1 μM; Fluo-3 AM fluorescence; read-out: pIC50 for the P2X3 receptor (converted)
T1 construct: expressed in transfected cells; host or cells: CHO-K1
T1 sequence (P49654 1-397): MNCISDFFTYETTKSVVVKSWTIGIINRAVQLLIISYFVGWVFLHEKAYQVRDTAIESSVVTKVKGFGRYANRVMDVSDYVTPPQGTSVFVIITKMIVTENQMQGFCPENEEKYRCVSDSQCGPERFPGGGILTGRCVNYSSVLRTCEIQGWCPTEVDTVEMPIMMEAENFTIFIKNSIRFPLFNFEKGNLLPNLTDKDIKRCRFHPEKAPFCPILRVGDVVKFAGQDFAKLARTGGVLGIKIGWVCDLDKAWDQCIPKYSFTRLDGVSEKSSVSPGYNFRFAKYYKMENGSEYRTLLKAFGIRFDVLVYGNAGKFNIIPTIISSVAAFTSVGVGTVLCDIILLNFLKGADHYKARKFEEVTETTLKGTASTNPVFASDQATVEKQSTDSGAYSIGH
Experimental: (§1) CHO-K1 cells were transfected with cloned rat P2X3 or human P2X2/3 receptor subunits and passaged in flasks. 18-24 hours before the FLIPR experiment, cells were released from their flasks, centrifuged, and resuspended in nutrient medium at 2.5×10^5 cells/ml. The cells were aliquoted into black-walled 96-well plates at a density of 50,000 cells/well and incubated overnight in 5% CO2 at 37° C. On the day of the experiment, cells were washed in FLIPR buffer (calcium- and magnesium-free Hank's balanced salt solution, 10 mM HEPES, 2 mM CaCl2, 2.5 mM probenecid; FB). Each well received 100 μl FB and 100 μl of the fluorescent dye Fluo-3 AM [2 μM final conc.]. […]
(§2) Test compounds (dissolved in DMSO at 10 mM and serially diluted with FB) or vehicle were added to each well (25 μl of a 4× solution) and allowed to equilibrate for 20 minutes at room temperature. The plates were then placed in the FLIPR and a baseline fluorescence measurement (excitation at 488 nm and emission at 510-570 nm) was obtained for 10 seconds before a 100 μl/well agonist or vehicle addition. […] Fluorescence was measured for an additional 2 minutes at 1 second intervals after agonist addition. A final addition of ionomycin (5 μM, final concentration) was made to each well of the FLIPR test plate to establish cell viability and maximum fluorescence of dye-bound cytosolic calcium. […]

[2] = target: T2, human P2X2/3 receptor (Homo sapiens, UniProt P56373+Q9UBL9); experiment: P2X2/3 FLIPR (Fluorometric Imaging Plate Reader) assay; format: cell-based; conditions: CHO-K1 cells transfected with human P2X2/3; agonist α,β-meATP 5 μM; Fluo-3 AM fluorescence; read-out: pKi for the P2X2/3 receptor (converted)
T2 construct: expressed in transfected cells; host or cells: CHO-K1
T2 sequence (Q9UBL9 1-471): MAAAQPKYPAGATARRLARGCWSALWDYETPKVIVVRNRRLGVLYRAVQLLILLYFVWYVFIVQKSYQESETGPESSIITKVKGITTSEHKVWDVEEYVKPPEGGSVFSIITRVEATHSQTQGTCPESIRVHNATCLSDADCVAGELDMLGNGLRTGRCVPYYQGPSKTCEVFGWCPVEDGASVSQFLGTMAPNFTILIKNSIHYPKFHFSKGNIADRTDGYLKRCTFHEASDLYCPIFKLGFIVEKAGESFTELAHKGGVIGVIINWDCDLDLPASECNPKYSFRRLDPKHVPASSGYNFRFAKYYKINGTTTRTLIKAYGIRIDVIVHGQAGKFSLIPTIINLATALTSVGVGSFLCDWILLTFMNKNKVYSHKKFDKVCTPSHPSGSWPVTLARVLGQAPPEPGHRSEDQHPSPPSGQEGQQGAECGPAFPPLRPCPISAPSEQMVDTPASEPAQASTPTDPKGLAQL
T2 sequence (P56373 1-397): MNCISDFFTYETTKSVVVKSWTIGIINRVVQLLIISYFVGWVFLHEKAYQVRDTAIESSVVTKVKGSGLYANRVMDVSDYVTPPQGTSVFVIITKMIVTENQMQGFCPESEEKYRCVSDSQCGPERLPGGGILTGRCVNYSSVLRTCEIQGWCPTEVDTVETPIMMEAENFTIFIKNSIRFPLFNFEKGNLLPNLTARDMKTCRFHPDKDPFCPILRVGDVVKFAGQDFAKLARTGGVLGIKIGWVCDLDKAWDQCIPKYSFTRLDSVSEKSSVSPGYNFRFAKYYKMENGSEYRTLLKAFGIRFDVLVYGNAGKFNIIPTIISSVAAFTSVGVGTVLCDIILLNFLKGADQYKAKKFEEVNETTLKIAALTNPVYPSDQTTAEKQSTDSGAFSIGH
Experimental: as §1, §2

Structure (SMILES)	IC50 [1] [µM]	Ki [2] [µM]
Cc1ccc(-c2cc(C(=O)N[C@@H](C)CO)cc(-c3ccnn3C3CCC3)c2)nc1 [Compound 70, 3-(2-Cyclobutyl-2H-pyrazol-3-yl)-N-((S)-2-hydroxy-1-methyl-ethyl)-5-(5-methyl-pyridin-2-yl)-benzamide]	~0.00214	
Cc1ccc(-c2cc(C(=O)NCc3ccc(C)nn3)cc(-n3nccc3CC(C)C)c2)nc1 [Compound 101, 3-(5-Isobutyl-pyrazol-1-yl)-N-(6-methyl-pyridazin-3-ylmethyl)-5-(5-methyl-pyridin-2-yl)-benzamide]		~0.0214
